Columns and labels:
[1] = tested on: progressive non-small cell lung cancer (NSCLC); assay: Phase I/II clinical trial in patients with progressive non-small cell lung cancer; type: in vivo
Procedure: The patients were assessed with imaging at the start of the study and thereafter every two months.

[2] = Solubility in 1% sodium dodecyl sulfate (SDS) by LC-UV; type: physicochemical; conditions: aqueous with cosolvent or surfactant or cyclodextrin, thermodynamic from solid, 1% SDS, 24 hours rotation
Procedure: The solubility was determined in different media by use of LC-UV chromatography. An excess amount of substance was weighed in vials and 0.5 ml of the medium was added. The substance was rotated in the specific medium at ambient temperature for 24 hours, followed by filtering the supernatant using a hydrophilic PVDF (Millipore Corp.) 0.22 μm filter. The samples were then diluted with a 1:1 mixture of mobile phase A and B (see below) and analyzed using an Xterra™ MS C18, 50×2.1 mm column with UV detection at 288 nm. The mobile phase consisted of acetonitrile, water and trifluoroacetic acid, 5:95:0.1(A) and 99:1:0.1(B).

For `COc1cc(C2c3cc4c(cc3C(O)[C@H]3COC(=O)[C@@H]23)OCO4)cc(OC)c1OC` (stereo partly drawn) [picropodophyllin monohydrate], the “patients with partial response according to RECIST criteria” value ([1]; NSCLC patients, 390 or 520 mg twice-daily) was “one”, the “patients still alive at cut-off” value ([1]; of ten NSCLC patients, 390 or 520 mg twice-daily) was “five” and the “patients with no detectable progression at cut-off” value ([1]; of the five NSCLC patients still alive, 390 or 520 mg twice-daily) was “two”. The median survival time ([1]; ten NSCLC patients, 390 or 520 mg twice-daily monotherapy, at least two weeks, expected median survival less than 20 weeks) was 42 weeks, the solubility at 24 h ([2]; ambient temperature) was 210 µg/mL and the solubility at 24 h ([2]; corresponds to the mg/ml value) was 489 µM.

Reference: patent publication US20130331445A1 (Axelar AB, priority 2010, published 2013)
